Structures are written as SMILES.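 Step 1: Grow cells in 96-well plates. Step 2: Expose to compound for 48 hours at 5 concentrations. Step 3: Interpolate endpoints linearly; if unreached, use highest concentration. GI50: concentration for 50% inhibition of growth. TGI: concentration producing complete growth inhibition.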

By TGI is commonly meant the concentration at which net growth stops. In general, GI50 refers to the concentration that inhibits growth by half.

Holding throughout (assay): DTP human tumour cell line panel, 48 h
Assay [1] relates to ACHN renal.
The subject of assay [2] is MDA-N.
Assay [3] has as its system MOLT-4 leukemia.
Assay [4] concerns NCI-H226 lung.
The test system of assay [5] is NCI-H23 lung.
The subject of assay [6] is SF-539 CNS.
The test system of assay [7] is T-47D breast.
Assay [8] deals with UACC-257 melanoma.
Assay [9] relates to PC-3 prostate.
The test system of assay [10] is SR leukemia.

With `O=c1cc(-c2ccncc2)[nH]c2cc3c(cc12)OCO3`, the total growth inhibition concentration (TGI) in assay [1], in assay [2], in assay [3], in [4], in [5] and in assay [6] was over 100 µM each time. Besides, the total growth inhibition concentration (TGI) in assay [7] and in assay [8] was over 100 µM throughout.
With `COc1ccc(C2C3=C(COC3=O)Oc3cc4c(cc32)OCO4)c(OC)c1` (stereo not drawn), the concentration for total growth inhibition (TGI) in [1] is over 100 µM; in assay [3], over 100 µM; in assay [4], over 100 µM; in assay [5], over 100 µM; in assay [9] it was over 100 µM; in [6], 43.6 µM. Also, the concentration for total growth inhibition (TGI) in assay [10] and in assay [8] was over 100 µM throughout.
As to `Cn1c(=O)c2c(nc3n(Cc4ccccc4)c(=O)c(NCCCBr)cn23)n(C)c1=O`, the total growth inhibition concentration (TGI) in assay [1], in [3], in assay [4], in assay [5], in assay [9] and in assay [10] was over 100 µM in each case. For the same compound, the concentration for total growth inhibition (TGI) in assay [7] and in assay [8] was over 100 µM in each case.
Consider `COc1cccc2c1C(=O)c1c(O)c3c(c(O)c1C2=O)C[C@H](O)C[C@@H]3OC1CC(N)C(O)C(C)O1` (stereo partly drawn), for which the TGI is 3.54 µM in assay [1]; 0.144 µM in assay [3]; 2.81 µM in [4]; 3.18 µM in [5]; 12 µM in assay [9]; 11.2 µM in assay [6]. For the same compound, the results for the TGI in assay [10], in assay [7] and in [8] were 0.229 µM, 15.3 µM and 5.15 µM, respectively.
Turning to `CCC1=C(C(C)=O)[C@@H]2CCCCC[C@@H](C(=O)OC)C2C1=O` (stereo partly drawn), the TGI in assay [1], in assay [3], in [5], in assay [6], in assay [10] and in assay [8] was over 100 µM each time.
In the case of `Cc1cc(C)nc(NS(=O)(=O)c2ccc(Nc3c4ccccc4nc4c(C(=O)N5CCN(CCOS(C)(=O)=O)CC5)cccc34)cc2)n1`, the concentration for total growth inhibition (TGI) in assay [1], in assay [3], in [4], in [5], in assay [6] and in assay [8] was over 100 µM throughout.
`Cc1cc(C)c2c(=O)cc(-c3cccc(F)c3)[nH]c2n1`: the concentration for total growth inhibition (TGI) is over 100 µM in assay [1]; over 53.5 µM in assay [3]; 7.4 µM in assay [4]; 11.2 µM in assay [5]; over 49.1 µM in assay [9]; 4.54 µM in [6]. Moreover, the TGI is 0.122 µM in assay [10], over 100 µM in assay [7] and over 100 µM in assay [8].
Consider `CCCCOc1ccc(OCCCCCCCCCC[N+](C)(C)C)cc1`, for which the concentration for total growth inhibition (TGI) in assay [3] amounted to 3.27 µM; in assay [4], 15.2 µM; in assay [5], 11 µM; in assay [6] it was 14.3 µM; in assay [8], 17.8 µM.
On to `COc1ccccc1CN=C1Nc2ccncc2S(=O)(=O)N1c1ccccc1`, for which the TGI in [1], in assay [3], in [4], in assay [5], in assay [9] and in assay [10] was over 100 µM each time. The compound further showed a TGI in assay [8] of over 100 µM.
As for `CC(C)(C)OC(=O)NC(Cc1ccccc1)NC(=O)NC(=O)OCc1ccccc1` (stereo not drawn), the TGI in [1], in assay [2], in [3], in assay [4], in assay [5] and in assay [9] was over 100 µM in each case. Moreover, the TGI is 60.8 µM in assay [6], over 100 µM in assay [10] and over 100 µM in assay [8].
In the case of `Cn1c(=O)c(-c2ccccc2)c(O)c2ccccc21`, the TGI in assay [1], in [2], in assay [3], in [4], in assay [5] and in assay [9] was over 100 µM each time. Moreover, the TGI in [6], in assay [10] and in assay [8] was over 100 µM throughout.
As for `C=C1N(C=O)C(C)(C)N(O)C1(C)C`, the total growth inhibition concentration (TGI) is over 100 µM in [1]; 84.4 µM in assay [3]; over 100 µM in [4]; over 100 µM in assay [5]; over 100 µM in assay [9]; over 100 µM in assay [6]. In addition, the total growth inhibition concentration (TGI) in assay [7] and in assay [8] was over 100 µM each time.
In the case of `CN(C)CCCNC(=O)c1cc(NC(=O)c2cc(NC(=O)CCCn3c4ccccc4c4ccccc43)cn2C)cn1C`, the total growth inhibition concentration (TGI) in [1] was over 65.9 µM; in [3], over 23.1 µM; in assay [4] it was 39 µM; in assay [5], 39.3 µM; in assay [9] it was over 56.3 µM; in assay [6] it was 62.6 µM. The TGI in assay [10] is 4.82 µM; in assay [7] it was 28 µM; in assay [8] it was 41.2 µM. Also, the GI50 in assay [4] is 9.26 µM; in assay [10], 2.24 µM.
For the compound `COc1cc(S(=O)(=O)Nc2ccc(C(=O)/C=C/c3ccc(O)cc3)cc2)ccc1F`, the GI50 was over 100 µM in assay [1]; 22.4 µM in assay [4]; over 100 µM in assay [5]; over 100 µM in assay [9]; over 100 µM in assay [6]; over 100 µM in assay [7]. The GI50 in [8] was over 100 µM. Further, the concentration for total growth inhibition (TGI) in [1] is over 100 µM; in [4], 76.2 µM; in [5] it was over 100 µM; in assay [9] it was over 100 µM; in assay [6], over 100 µM; in assay [7], over 100 µM. In assay [8], this compound yielded a TGI of over 100 µM.
Take `CC(C)N1CC2CC(CN(C(=O)c3ccccc3)C2)C1`: the TGI in assay [1], in assay [3], in assay [4], in [5], in assay [6] and in assay [8] was over 100 µM throughout.
Consider `CN1C(=O)N(C)C(O)C(Cl)(Br)C1=O` (stereo not drawn), for which the TGI in [1], in [2], in assay [3], in assay [4], in [5] and in [9] was over 100 µM throughout. Also, the TGI in assay [6], in assay [10] and in assay [8] was over 100 µM in each case.
For `CN(C)CCNC(=O)c1cc(Cl)cc2ccc(-c3ccccc3)nc12`, the TGI in assay [3] came out at 2.92 µM; in [4] it was 7.02 µM; in assay [5], 14.4 µM; in [6], 9.18 µM; in assay [8] it was 10.8 µM.
Take `NCCCCNCCCNC(=O)c1nc(-c2nc(CCN)sc2Cl)sc1Cl`: the TGI in assay [1], in assay [3], in assay [4], in [5], in assay [6] and in assay [10] was over 100 µM in each case. Also, the total growth inhibition concentration (TGI) in assay [8] was over 100 µM.
`CSc1cc(=O)n2c3ccccc3c3ccnc1c32`: the total growth inhibition concentration (TGI) in [3] is over 100 µM; in assay [4], over 100 µM; in [5], over 100 µM; in [6], over 71.4 µM; in assay [8] it was over 100 µM.
On to `S=C(N/N=C\C(=N/NC(=S)N1CCCCC1)c1ccccc1)N1CCCCC1`, for which the TGI in [1] was 3.11 µM; in assay [2] it was over 100 µM; in assay [4] it was 3.38 µM; in assay [9], 4.06 µM; in [6], 6.7 µM; in assay [7], 6.72 µM. Further, the TGI in assay [8] came to 5.01 µM.
As to `COc1cc(-c2n/c(=C\c3c(O)[nH]c4ccc(Cl)cc34)cc3c2=Nc2ccccc2-3)ccc1F`, the GI50 in assay [1] is 1.85 µM; in [3], 1.08 µM; in [4], 2.19 µM; in [5] it was 1.73 µM; in assay [9] it was 2 µM; in assay [6], 2.79 µM. Besides, the results for the GI50 in assay [10], in [7] and in assay [8] were 1.08 µM, 1.5 µM and 3.43 µM, respectively. Also, the TGI in assay [1] stood at 3.76 µM; in assay [3], 3.32 µM; in assay [4], 8.15 µM; in [5], 3.42 µM; in [9] it was 5.88 µM; in assay [6], 9.87 µM. Besides, the TGI in assay [10] is 4.76 µM; in [7] it was 3.5 µM; in assay [8], 10.9 µM.
As for `COC(=O)[C@@H]1CCCCC[C@H]2C(CO)=C(C)C(=O)C12` (stereo partly drawn), the TGI in [1], in assay [3], in [4], in assay [5], in assay [6] and in [10] was over 100 µM each time. In addition, the TGI in [8] is over 100 µM.
Consider `N#C/C(=C/n1c(=S)[nH]c2ccc([N+](=O)[O-])cc21)C(N)=O`, for which the TGI in [1], in [2], in assay [3], in assay [4], in [5] and in assay [9] was over 100 µM throughout. Further, the TGI in assay [6], in [10] and in assay [8] was over 100 µM throughout.
Turning to `O=S(=O)(O)c1ccc(N=Nc2ccc(N=Nc3ccc(/C=C/c4ccc(N=[N+]([O-])c5ccc(/C=C/c6ccc(N=Nc7ccc(N=Nc8ccc(S(=O)(=O)O)cc8)cc7)cc6S(=O)(=O)O)c(S(=O)(=O)O)c5)cc4S(=O)(=O)O)c(S(=O)(=O)O)c3)cc2)cc1`, the total growth inhibition concentration (TGI) in [3], in assay [4], in assay [5], in assay [6] and in [8] was over 100 µM each time.
As to `C/C(Cl)=N\OC(=O)Nc1ccc(C)cc1`, the TGI amounted to 29.1 µM in assay [1]; 29.9 µM in assay [2]; 39 µM in [5]; 29.3 µM in assay [9]; 35.8 µM in [6]; 48.2 µM in assay [7]. The compound also returned a TGI in assay [8] of 32.9 µM.
Regarding `C1=C2C3=[N+](CCCCC3)CC2Cc2ccsc21` (stereo not drawn), the concentration for total growth inhibition (TGI) in [1], in assay [2], in assay [3], in [4], in [5] and in assay [9] was over 100 µM in each case. The TGI in assay [7] was over 100 µM; in assay [8], 85.3 µM.
As for `COc1cc2cc(C(=O)N3C[C@H](CCl)c4c3cc(N)c3ccccc43)[nH]c2c(OC)c1OC`, the total growth inhibition concentration (TGI) was under 0.005 µM in assay [1]; 9.03 µM in assay [2]; 0.246 µM in assay [3]; 3.3 µM in assay [6]; over 50 µM in assay [10]; under 0.005 µM in assay [7]. The 50% growth inhibitory concentration (GI50) was under 0.001 µM in assay [2] and 0.005 µM in [10].
Turning to `CS(=O)(=O)Nc1ccc2c(c1)N(S(C)(=O)=O)CC2CCl` (stereo not drawn), the TGI in assay [1], in assay [3], in assay [4], in [5], in assay [9] and in assay [6] was over 100 µM in each case. For the same compound, the total growth inhibition concentration (TGI) in [10], in assay [7] and in assay [8] was over 100 µM in each case.
With `O=C(O)c1cccc2cccc(-c3cccc4cccc(C(=O)O)c34)c12`, the TGI in [1], in [2], in [4], in assay [5], in assay [9] and in assay [6] was over 100 µM throughout. For the same compound, the TGI in [7] and in assay [8] was over 100 µM in each case.
On to `O=C1N=C2SC(=S)NC(=S)N2NC12c1ccccc1-c1ccccc12`, for which the concentration for total growth inhibition (TGI) in assay [2], in assay [3], in [5], in assay [6], in assay [10] and in [7] was over 10 µM each time. This compound registered a concentration for total growth inhibition (TGI) in assay [8] of over 10 µM.
For `CCc1c(CNc2ccc(C(=O)NC(CC(=O)O)C(=O)O)cc2)ccc2nc(N)nc(N)c12` (stereo not drawn), the TGI in assay [1], in assay [2], in assay [3], in assay [4], in assay [5] and in assay [9] was over 1000 µM in each case. The concentration for total growth inhibition (TGI) in [6] and in [10] was over 1000 µM throughout. The GI50 in [4] is over 1000 µM; in assay [9], under 0.01 µM; in assay [6], 0.285 µM.

The values above are taken from PubChem BioAssay (NCI).
